Two compounds from patent US7713952B2, “2-methylene-19,26,27-trinor-(20S)-1α-hydroxyvitamin D3 and its uses” (Wisconsin Alumni Research Foundation, priority 2004, dated 2010) can be followed below.

For test [1], the target named is T1, full-length recombinant rat vitamin D receptor (Rattus norvegicus, UniProt P13053).
T1 construct: Full-length recombinant rat receptor was expressed in E. coli; histidine tag (C); made in house; host or cells: E. coli BL21 (DE3) Codon Plus RIL
T1 sequence (P13053 1-423): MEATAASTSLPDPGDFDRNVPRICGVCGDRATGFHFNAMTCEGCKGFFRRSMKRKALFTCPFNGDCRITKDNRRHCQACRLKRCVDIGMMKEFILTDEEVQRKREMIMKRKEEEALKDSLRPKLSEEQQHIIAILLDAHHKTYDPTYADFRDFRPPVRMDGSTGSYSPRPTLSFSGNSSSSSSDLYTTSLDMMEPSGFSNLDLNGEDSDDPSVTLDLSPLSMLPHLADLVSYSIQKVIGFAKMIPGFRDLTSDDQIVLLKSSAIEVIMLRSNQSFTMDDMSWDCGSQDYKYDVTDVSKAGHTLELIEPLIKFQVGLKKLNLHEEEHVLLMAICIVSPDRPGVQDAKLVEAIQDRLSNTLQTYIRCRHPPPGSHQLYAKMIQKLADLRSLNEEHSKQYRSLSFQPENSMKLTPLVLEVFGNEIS
Description: Vitamin D receptor competitive binding with [3H]-1,25(OH)2D3. Particulars: full-length recombinant rat VDR; FIG. 1; read-out: Ki, competition with [3H]-1,25(OH)2D3 for binding to vitamin D receptor. As to the method: Full-length recombinant rat receptor was expressed in E. coli BL21 (DE3) Codon Plus RIL cells and purified to homogeneity using two different column chromatography systems. The first system was a nickel affinity resin that utilizes the C-terminal histidine tag on this protein. The protein that was eluted from this resin was further purified using ion exchange chromatography (S-Sepharose Fast Flow). Aliquots of the purified protein were quick frozen in liquid nitrogen and stored at −80° C. until use. For use in binding assays, the protein was diluted in TEDK50 (50 mM Tris, 1.5 mM EDTA, pH7.4, 5 mM DTT, 150 mM KCl) with 0.1% Chaps detergent. The receptor protein and ligand concentration were optimized such that no more than 20% of the added radiolabeled ligand was bound to the receptor.
Radiolabeled and unlabeled ligands were added to 100 mcl of the diluted protein at a final ethanol concentration of ≦10%, mixed and incubated overnight on ice to reach binding equilibrium. The following day, 100 mcl of hydroxylapatite slurry (50%) was added to each tube and mixed at 10-minute intervals for 30 minutes. The hydroxylapaptite was collected by centrifugation and then washed three times with Tris-EDTA buffer (50 mM Tris, 1.5 mM EDTA, pH 7.4) containing 0.5% Titron X-100. […]

The test system of test [2] is Human promyelocytic leukemia (HL60) cells. The test can be described thus: HL-60 cell differentiation (nitro blue tetrazolium reduction). Format: cell-based. To be noted: 4 days, FIG. 2. How it is done: Radiolabeled and unlabeled ligands were added to 100 mcl of the diluted protein at a final ethanol concentration of ≦10%, mixed and incubated overnight on ice to reach binding equilibrium. The following day, 100 mcl of hydroxylapatite slurry (50%) was added to each tube and mixed at 10-minute intervals for 30 minutes. The hydroxylapaptite was collected by centrifugation and then washed three times with Tris-EDTA buffer (50 mM Tris, 1.5 mM EDTA, pH 7.4) containing 0.5% Titron X-100. After the final wash, the pellets were transferred to scintillation vials containing 4 ml of Biosafe II scintillation cocktail, mixed and placed in a scintillation counter. Total binding was determined from the tubes containing only radiolabeled ligand. • HL-60 Differentiation • Test Material Study Drugs
The study drugs were dissolved in ethanol and the concentrations determined using UV spectrophotometry. Serial dilutions were prepared so that a range of drug concentrations could be tested without changing the final concentration of ethanol (≦0.2%) present in the cell cultures. […]
HL60 cells were plated at 1.2×10^5 cells/ml. […] The percentage of differentiated cells was determined by counting a total of 200 cells and recording the number that contained intracellular black-blue formazan deposits. Verification of differentiation to monocytic cells was determined by measuring phagocytic activity (data not shown).

Test [3] relates to 24-hydroxylase (24Ohase) gene promoter in ROS 17/2.8 (bone) cells. Description: In vitro transcription assay (24-hydroxylase promoter luciferase reporter). Type of test: cell-based. Particulars: ROS 17/2.8 cells, 24OHase-luciferase, 16 h; FIG. 3; read-out: EC50, transcriptional activity in bone cells. As to the method:
In Vitro Transcription Assay
Transcription activity was measured in ROS 17/2.8 (bone) cells that were stably transfected with a 24-hydroxylase (24Ohase) gene promoter upstream of a luciferase reporter gene (Arbour et al., 1998). Cells were given a range of doses. Sixteen hours after dosing the cells were harvested and luciferase activities were measured using a luminometer.
RLU=relative luciferase units.
On the technique in general: A reporter such as luciferase makes a cellular process visible.

Test [4] concerns vitamin D-deficient rats. The test can be described thus: Bone calcium mobilization (serum calcium). Format: in vivo, rat. To be noted: rats on 0.02% Ca diet. As to the method:
(§1) Intestinal Calcium Transport and Bone Calcium Mobilization
(§2) Male, weanling Sprague-Dawley rats were placed on Diet 11 (0.47% Ca) diet +AEK for one week followed by Diet 11 (0.02% Ca) +AEK for 3 weeks. The rats were then switched to a diet containing 0.47% Ca for one week followed by two weeks on a diet containing 0.02% Ca. Dose administration began during the last week on 0.02% calcium diet. Four consecutive ip doses were given approximately 24 hours apart. Twenty-four hours after the last dose, blood was collected from the severed neck and the concentration of serum calcium determined as a measure of bone calcium mobilization. The first 10 cm of the intestine was also collected for intestinal calcium transport analysis using the everted gut sac method.

The test system of test [5] is vitamin D-deficient rats. The test can be described thus: Intestinal calcium transport (everted gut sac method). Type of test: in vivo, rat. To be noted: FIG. 6. As to the method:
as §1, §2

[6] abbreviates: 87 or 780 pmol/day ip for 4 days.

The Ki is a dissociation constant, usually derived from enzyme kinetics or from competition with a known ligand. The term EC50 denotes the concentration needed to bring the measured effect to its halfway point.

For `C=C1[C@H](O)CC(=C/C=C2\CCC[C@@]3(C)C2CCC3[C@@H](C)CCCC)C[C@H]1O` (stereo partly drawn) [OM, 2-methylene-19,26,27-trinor-(20S)-1α-hydroxyvitamin D3], the Ki in test [1] was 0.077 nM. The EC50 was 4.7 nM in test [2] (Homo sapiens, HL-60, 96 h) and 3.2 nM in test [3]. Further, the “mobilization of bone calcium (serum calcium)” value in the test with vitamin D-deficient rats [4] (87 pmol/day ip for 4 consecutive days) is reported as “did not result in mobilization of bone calcium”; with vitamin D-deficient rats [4] (780 pmol/day and 7020 pmol/day ip for 4 days), “without any substantial effect”. The intestinal calcium transport entry in the test on vitamin D-deficient rats [5] (7020 pmol/day ip for 4 days) was “significant intestinal calcium transport activity was recorded”; in the test on vitamin D-deficient rats [5] (setting [6]) it was “does not promote intestinal calcium transport”.
Consider `C=C1/C(=C\C=C2/CCC[C@]3(C)[C@@H]([C@H](C)CCCC(C)(C)O)CC[C@@H]23)C[C@@H](O)C[C@@H]1O` [1,25(OH)2D3, 1α,25-dihydroxyvitamin D3, reference compound], for which, in test [2], the EC50 was determined as 2.9 nM. Besides, the “serum calcium levels (bone calcium mobilization)” value with vitamin D-deficient rats [4] (all dosages, FIG. 4) was “increased serum calcium levels at all dosages”. Moreover, the intestinal calcium transport result in the test on vitamin D-deficient rats [5] (setting [6]) is recorded as “promotes a significant increase”.
